According to US9387204B2, “Fused bicyclic imidazoles” (BAYER INTELLECTUAL PROPERTY GmbH, priority 2007, dated 2016):

These molecules were tested on A549 cells (assay: Cellular proliferation/cytotoxicity assay (Alamar Blue), A549 cells). Conditions: Homo sapiens, A549, 72 h, read-out: Anti-proliferative/Cytotoxic activity (A549 cells).
Experimental: The anti-proliferative activity of the compounds as described herein, is evaluated using the OvCAR3, HCT116 and A549 cell lines and the Alamar Blue (Resazurin) cell viability assay (O'Brien et al. Eur J Biochem 267, 5421-5426, 2000). Resazurin is reduced to the fluorescent resorufin by cellular dehydrogenase activity, correlating with viable, proliferating cells. Test compounds are dissolved as 10 mM solutions in DMSO and subsequently diluted. Cells like HCT116 or A549 cells were seeded into 96 well flat bottom plates at a density of 10000 cells/well (OvCAR3 cells), 1000 cells/well (HCT116 cells) or 2000 cells/well (A549 cells) in a volume of 200 μl/well. 24 hours after seeding, 1 μl each of the compound dilutions are added into each well of the 96 well plates. Each compound dilution is tested as at least as duplicates. Wells containing untreated control cells were filled with 200 μl DMEM (Dulbecco's Modified Eagle Medium) containing 0.5 vol % v:v DMSO. The cells are then incubated with the substances for 72 h at 37° C. in a humidified atmosphere containing 5 vol % CO2. To determine the viability of the cells, 20 μl of a Resazurin solution (90 mg/l) are added. After 4 h incubation at 37° C., the fluorescence is measured by extinction at ? =544 nm and an emission of ? =590 nm (Wallac Victor2; Perkin Elmer, USA). For the calculation of the cell viability, the emission value from untreated cells is set as 100% viability and the fluorescence intensity of treated cells are set in relation to the values of untreated cells. Viabilities are expressed as % values. The corresponding IC50 values of the compounds for cytotoxic activity are determined from the concentration-effect curves by means of non-linear regression. The analysis of the data is performed using a biostatistical program (Graph Pad Prism, USA).
`c1ccc(-c2c(-c3ccc(CN4CCC(c5n[nH]c(-c6ccccn6)n5)CC4)cc3)nc3ccccn23)cc1` [Example 2, 3-phenyl-2-(4-{[4-(5-pyridin-2-yl-1H-1,2,4-triazol-3-yl)piperidin-1-yl]methyl}phenyl)imidazo[1,2-a]pyridine] was tested, and the IC50 was under 10 µM. `c1ccc(-c2nc(C3CCN(Cc4ccc(-c5nc6ncccn6c5-c5nccs5)cc4)CC3)n[nH]2)nc1` [Example 39, 2-(4-{[4-(5-pyridin-2-yl-1,2,4-triazol-3-yl)piperidin-1-yl]methyl}phenyl)-3-(1,3-thiazol-2-yl)imidazo[1,2-a]pyrimidine] gave an IC50 of over 10 µM. Work on `Brc1cccn2c(-c3ccccc3)c(-c3ccc(CN4CCC(c5n[nH]c(-c6ccccn6)n5)CC4)cc3)nc12` [Example 25, 8-bromo-3-phenyl-2-(4-{[4-(5-pyridin-2-yl-1,2,4-triazol-3-yl)piperidin-1-yl]methyl}phenyl)imidazo[1,2-a]pyridine] yielded an IC50 of under 10 µM. Work on `Ic1cnc2nc(-c3ccc(CN4CCC(c5n[nH]c(-c6ccccn6)n5)CC4)cc3)c(-c3ccccc3)n2c1` [Example 23, 6-iodo-3-phenyl-2-(4-{[4-(5-pyridin-2-yl-1,2,4-triazol-3-yl)piperidin-1-yl]methyl}phenyl)imidazo[1,2-a]pyrimidine] yielded an IC50 of over 10 µM. `FC(F)(F)c1nn2c(-c3ccccc3)c(-c3ccc(CN4CCC(c5nnc(-c6ccccn6)[nH]5)CC4)cc3)nc2s1` [Example 48, 5-phenyl-6-[4-({4-[5-(pyridin-2-yl)-4H-1,2,4-triazol-3-yl]piperidin-1-yl}methyl)phenyl]-2-(trifluoromethyl)imidazo[2,1-b][1,3,4]thiadiazole] showed an IC50 of over 10 µM. For `Clc1ccn2c(-c3ccccc3)c(-c3ccc(CN4CCC(c5nnc(-c6ccccn6)[nH]5)CC4)cc3)nc2c1` [Example 54, 7-chloro-3-phenyl-2-(4-{[4-(5-pyridin-2-yl-4H-1,2,4-triazol-3-yl)piperidin-1-yl]methyl}phenyl)imidazo[1,2-a]pyridine], the IC50 was under 10 µM. Work on `c1ccc(-c2c(-c3ccc(CN4CCC(c5n[nH]c(-c6ccccn6)n5)CC4)cc3)nc3cnccn23)cc1` [Example 37, 3-phenyl-2-(4-{[4-(5-pyridin-2-yl-1,2,4-triazol-3-yl)piperidin-1-yl]methyl}phenyl)imidazo[1,2-a]pyrazine] yielded an IC50 of over 10 µM. `COc1cccn2c(-c3ccccc3)c(-c3ccc(CN4CCC(c5n[nH]c(-c6ccccn6)n5)CC4)cc3)nc12` [Example 13, 8-methoxy-3-phenyl-2-(4-{[4-(5-pyridin-2-yl-1,2,4-triazol-3-yl)piperidin-1-yl]methyl}phenyl)imidazo[1,2-a]pyridine] showed an IC50 of under 10 µM. With `COc1ccc(-c2c(-c3ccc(CN4CCC(c5n[nH]c(-c6ccccn6)n5)CC4)cc3)nc3ccccn23)cc1` [Example 15, 3-(4-methoxyphenyl)-2-(4-{[4-(5-pyridin-2-yl-1,2,4-triazol-3-yl)piperidin-1-yl]methyl}phenyl)imidazo[1,2-a]pyridine] the IC50 was under 10 µM. With `Clc1ccc2nc(-c3ccc(CN4CCC(c5nnc(-c6ccccn6)[nH]5)CC4)cc3)c(-c3ccccc3)n2c1` [Example 7, 6-chloro-3-phenyl-2-(4-{[4-(5-pyridin-2-yl-4H-1,2,4-triazol-3-yl)piperidin-1-yl]methyl}phenyl)imidazo[1,2-a]pyridine] the IC50 was under 10 µM. For `N#Cc1ccn2c(-c3ccccc3)c(-c3ccc(CN4CCC(c5nnc(-c6ccccc6)[nH]5)CC4)cc3)nc2c1` [Example 118, 3-phenyl-2-(4-{[4-(5-phenyl-4H-1,2,4-triazol-3-yl)piperidin-1-yl]methyl}phenyl)imidazo[1,2-a]pyridine-7-carbonitrile], the IC50 was under 10 µM. Work on `c1ccc(-c2nc(C3CCN(Cc4ccc(-c5nc6ncccn6c5-c5ccsc5)cc4)CC3)n[nH]2)nc1` [Example 34, 2-(4-{[4-(5-pyridin-2-yl-1,2,4-triazol-3-yl)piperidin-1-yl]methyl}phenyl)-3-(3-thienyl)imidazo[1,2-a]pyrimidine] yielded an IC50 of over 10 µM. `c1ccc(-c2nc(C3CCN(Cc4ccc(-c5nc6ccccn6c5-c5cccs5)cc4)CC3)n[nH]2)nc1` [Example 17, 2-(4-{[4-(5-pyridin-2-yl-1,2,4-triazol-3-yl)piperidin-1-yl]methyl}phenyl)-3-(2-thienyl)imidazo[1,2-a]pyridine] showed an IC50 of under 10 µM. Molecule `c1ccc(-c2nnc(C3CCN(Cc4ccc(-c5nc6sccn6c5-c5ccccc5)cc4)CC3)[nH]2)cc1` [Example 122, 5-phenyl-6-(4-{[4-(5-phenyl-4H-1,2,4-triazol-3-yl)piperidin-1-yl]methyl}phenyl)imidazo[2,1-b][1,3]thiazole] has an IC50 of under 10 µM. Molecule `N#Cc1ccn2c(-c3ccccc3)c(-c3ccc(CN4CCC(c5n[nH]c(-c6ccccn6)n5)CC4)cc3)nc2c1` [Example 29, 3-phenyl-2-(4-{[4-(5-pyridin-2-yl-1,2,4-triazol-3-yl)piperidin-1-yl]methyl}phenyl)imidazo[1,2-a]pyridine-7-carbonitrile] has an IC50 of over 10 µM. In the case of `O=C(O)c1ccn2c(-c3ccccc3)c(-c3ccc(CN4CCC(c5nnc(-c6ccccn6)[nH]5)CC4)cc3)nc2c1` [Example 125, 3-phenyl-2-[4-({4-[5-(pyridin-2-yl)-4H-1,2,4-triazol-3-yl]piperidin-1-yl}methyl)phenyl]imidazo[1,2-a]pyridine-7-carboxylic acid], the IC50 is reported as over 10 µM. `Cc1ccn2c(-c3ccccc3)c(-c3ccc(CN4CCC(c5nnc(-c6ccccn6)[nH]5)CC4)cc3)nc2c1` [Example 50, 7-methyl-3-phenyl-2-[4-({4-[5-(pyridin-2-yl)-4H-1,2,4-triazol-3-yl]piperidin-1-yl}methyl)phenyl]imidazo[1,2-a]pyridine] gave an IC50 of over 10 µM. In the case of `Fc1ccc(-c2c(-c3ccc(CN4CCC(c5n[nH]c(-c6ccccn6)n5)CC4)cc3)nc3ccccn23)cc1` [Example 9, 3-(4-fluorophenyl)-2-(4-{[4-(5-pyridin-2-yl-1,2,4-triazol-3-yl)piperidin-1-yl]methyl}phenyl)imidazo[1,2-a]pyridine], the IC50 is reported as under 10 µM.

Same assay, conditions: read-out: Anti-proliferative/Cytotoxic activity (A549 cells); A549 cells, 72 h, Alamar Blue (Resazurin)
With `N#Cc1ccn2c(-c3ccccc3)c(-c3ccc(CN4CCC(c5nnc(-c6ccccn6)[nH]5)CC4)cc3)nc2c1` [Example 114, ′3-phenyl-2-(4-{[4-(5-pyridin-2-yl-4H-1,2,4-triazol-3-yl)piperidin-1-yl]methyl}phenyl)imidazo[1,2-a]pyridine-7-carbonitrile] the IC50 was under 10 µM. `Cc1ccc2nc(-c3ccc(CN4CCC(c5nnc(-c6ccco6)[nH]5)CC4)cc3)c(-c3ccccc3)n2n1` [Example 92, ′2-[4-({4-[5-(2-furyl)-4H-1,2,4-triazol-3-yl]piperidin-1-yl}methyl)phenyl]-6-methyl-3-phenylimidazo[1,2-b]pyridazine] showed an IC50 of under 10 µM. Work on `c1ccc(-c2c(-c3ccc(CN4CCC(c5nnc(-c6ccc[nH]6)[nH]5)CC4)cc3)nc3scnn23)cc1` [Example 108, ′5-phenyl-6-[4-({4-[5-(1H-pyrrol-2-yl)-4H-1,2,4-triazol-3-yl]piperidin-1-yl}methyl)phenyl]imidazo[2,1-b][1,3,4]thiadiazole] yielded an IC50 of under 10 µM. `c1ccc(-c2c(-c3ccc(CN4CCC(c5n[nH]c(-c6ncccn6)n5)CC4)cc3)nc3ncccn23)cc1` [Example 79, ′3-phenyl-2-(4-{[4-(5-pyrimidin-2-yl-1H-1,2,4-triazol-3-yl)piperidin-1-yl]methyl}phenyl)imidazo[1,2-a]pyrimidine] gave an IC50 of over 10 µM. In the case of `c1ccc(-c2c(-c3ccc(CN4CCC(c5nnc(-c6ccco6)[nH]5)CC4)cc3)nc3ccccn23)cc1` [Example 91, ′2-[4-({4-[5-(2-furyl)-4H-1,2,4-triazol-3-yl]piperidin-1-yl}methyl)phenyl]-3-phenylimidazo[1,2-a]pyridine], the IC50 is reported as under 10 µM. `Cc1ccc2nc(-c3ccc(CN4CCC(c5nnc(-c6ccc[nH]6)[nH]5)CC4)cc3)c(-c3ccccc3)n2n1` [Example 104, ′6-methyl-3-phenyl-2-[4-({4-[5-(1H-pyrrol-2-yl)-4H-1,2,4-triazol-3-yl]piperidin-1-yl}methyl)phenyl]imidazo[1,2-b]pyridazine] gave an IC50 of under 10 µM. Work on `N#Cc1ccn2c(-c3ccccc3)c(-c3ccc(CN4CCC(c5nnc(-c6cccs6)[nH]5)CC4)cc3)nc2c1` [Example 102, ′3-phenyl-2-[4-({4-[5-(2-thienyl)-4H-1,2,4-triazol-3-yl]piperidin-1-yl}methyl)phenyl]imidazo[1,2-a]pyridine-7-carbonitrile] yielded an IC50 of under 10 µM. `c1ccc(-c2c(-c3ccc(CN4CCC(c5n[nH]c(-c6nccs6)n5)CC4)cc3)nc3ncccn23)cc1` [Example 84, ′3-phenyl-2-[4-({4-[5-(1,3-thiazol-2-yl)-1H-1,2,4-triazol-3-yl]piperidin-1-yl}methyl)phenyl]imidazo[1,2-a]pyrimidine] gave an IC50 of over 10 µM. In the case of `Cc1ccc(-c2nnc(C3CCN(Cc4ccc(-c5nc6ncccn6c5-c5ccccc5)cc4)CC3)[nH]2)nc1` [Example 70, ′2-[4-({4-[5-(5-methylpyridin-2-yl)-4H-1,2,4-triazol-3-yl]piperidin-1-yl}methyl)phenyl]-3-phenylimidazo[1,2-a]pyrimidine], the IC50 is reported as under 10 µM. `c1ccc(-c2c(-c3ccc(CN4CCC(c5nnc(-c6ccncc6)[nH]5)CC4)cc3)nc3scnn23)cc1` [Example 60, ′5-phenyl-6-(4-{[4-(5-pyridin-4-yl-4H-1,2,4-triazol-3-yl)piperidin-1-yl]methyl}phenyl)imidazo[2,1-b][1,3,4]thiadiazole] showed an IC50 of under 10 µM. With `N#Cc1cc2nc(-c3ccc(CN4CCC(c5nnc(-c6ccccn6)[nH]5)CC4)cc3)c(-c3ccccc3)n2cc1Br` [Example 52, ′6-bromo-3-phenyl-2-(4-{[4-(5-pyridin-2-yl-4H-1,2,4-triazol-3-yl)piperidin-1-yl]methyl}phenyl)imidazo[1,2-a]pyridine-7-carbonitrile] the IC50 was over 10 µM. `c1ccc(-c2c(-c3ccc(CN4CCC(c5nnc(-c6ccncc6)[nH]5)CC4)cc3)nc3sccn23)cc1` [Example 56, ′5-phenyl-6-(4-{[4-(5-pyridin-4-yl-4H-1,2,4-triazol-3-yl)piperidin-1-yl]methyl}phenyl)imidazo[2,1-b][1,3]thiazole] showed an IC50 of under 10 µM. `c1ccc(-c2c(-c3ccc(CN4CCC(c5nnc(-c6ccco6)[nH]5)CC4)cc3)nc3scnn23)cc1` [Example 94, ′6-[4-({4-[5-(2-furyl)-4H-1,2,4-triazol-3-yl]piperidin-1-yl}methyl)phenyl]-5-phenylimidazo[2,1-b][1,3,4]thiadiazole] showed an IC50 of under 10 µM.
